Experimental data from US8075921B2, “Rapamycin-resistant T cells and therapeutic uses thereof” (The United States of America as represented by the …, priority 2001, dated 2011).

How the values were obtained:
[1] = tested on: memory CD45RO^+ sorted cells; assay: Co-stimulated expansion of flow-sorted memory CD4 cells with or without rapamycin; format: cell-based, human; conditions: in rapamycin relative to control culture
Text: (§1) To this extent, naïve or memory human CD4 cells were purified by flow sorting, and co-stimulated either with or without rapamycin (results in FIG. 31).

[2] = tested on: naïve human CD4 cells; assay: Co-stimulated expansion of flow-sorted naïve CD4 cells with or without rapamycin; format: cell-based; conditions: in rapamycin relative to control culture
Text: as §1

In the case of `CO[C@H]1C[C@@H]2CC[C@@H](C)[C@@](O)(O2)C(=O)C(=O)N2CCCC[C@H]2C(=O)O[C@H]([C@H](C)C[C@@H]2CC[C@@H](O)[C@H](OC)C2)CC(=O)[C@H](C)/C=C(\C)[C@@H](O)[C@@H](OC)C(=O)[C@H](C)C[C@H](C)/C=C/C=C/C=C/1C` [rapamycin], the “reduction in CD4+ T cell expansion” value [1] was ~50% and the “reduction in CD4 yield” value [2] was ~25%.
